Source: US20240083892A1 (BISICHEM CO., LTD., priority 2021, published 2024)

What was measured:
[1] = biological target: T1, RIPK1 (Homo sapiens, UniProt Q13546); test: Cell-based necroptosis assay for RIPK1 activity (cell viability by CCK-8); settings: HT-29 cells; Z-VAD-FMK 20 μM, human TNFα 10 ng/ml, SM-164 100 nM; 24 h; read-out: Cell-base RIPK1 activity: Necroptosis
T1 construct: endogenous in cells; host or cells: HT-29 (KCLB 30038)
T1 sequence (Q13546 1-671): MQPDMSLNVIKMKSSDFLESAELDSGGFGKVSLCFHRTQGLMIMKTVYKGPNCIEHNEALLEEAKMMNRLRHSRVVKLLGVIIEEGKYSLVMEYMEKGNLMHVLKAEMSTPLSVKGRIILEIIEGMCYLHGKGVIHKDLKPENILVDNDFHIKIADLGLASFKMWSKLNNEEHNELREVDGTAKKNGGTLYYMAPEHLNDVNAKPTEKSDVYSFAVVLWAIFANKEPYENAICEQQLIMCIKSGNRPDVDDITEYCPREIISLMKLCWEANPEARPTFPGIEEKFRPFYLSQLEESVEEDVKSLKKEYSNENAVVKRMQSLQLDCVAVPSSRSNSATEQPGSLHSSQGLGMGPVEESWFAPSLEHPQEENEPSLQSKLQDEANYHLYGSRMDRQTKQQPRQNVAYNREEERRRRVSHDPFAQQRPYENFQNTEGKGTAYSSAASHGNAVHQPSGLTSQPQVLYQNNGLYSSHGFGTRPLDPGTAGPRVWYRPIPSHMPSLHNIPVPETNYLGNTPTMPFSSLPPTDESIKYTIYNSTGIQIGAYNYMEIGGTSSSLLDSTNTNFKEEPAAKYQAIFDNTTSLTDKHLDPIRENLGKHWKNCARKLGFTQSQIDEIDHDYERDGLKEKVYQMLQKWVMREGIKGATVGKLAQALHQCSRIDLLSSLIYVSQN
Outline: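 HT-29 cells pretreated 30 min with 20 μM Z-VAD-FMK, then necroptosis induced with human TNFα 10 ng/ml plus SM-164 100 nM alongside RIPK1 inhibitor (0.0001–10 uM) for 24 h. Viability read by CCK-8.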

[2] = biological target: T1, RIPK1; test: Immunoblotting of TNFα induced phospho-RIPK1 (ser 166) levels; type: cell-based; settings: HMC3 cells; Z-VAD-FMK, human TNFα 20 ng/ml, SM-164 100 nM; 7 h, serum free media; read-out: Cell-base RIPK1 activity: phspho-RIPK1 (Ser166)
Outline: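 HMC3 human microglial cells were pretreated 30 min with Z-VAD-FMK […]. They were then given TNFα 20 ng/ml, SM-164 100 nM and inhibitor (0.1, 1, 10 nM) for 7 h in serum-free medium. BCA-normalised lysates were immunoblotted for phospho-RIPK1 Ser166.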

Compound: CN1C(=O)[C@@H](NC(=O)n2cc(Cc3cccc(F)c3)cn2)COc2ccc(OCC(=O)N3CCC(C)(O)CC3)cc21 [Example 41, (S)-4-(3-fluorobenzyl)-N-(7-(2-(4-hydroxy-4-methylpiperidin-1-yl)-2-oxoethoxy)-5-methyl-4-oxo-2,3,4,5-tetrahydrobenzo[b][1,4]oxazepin-3-yl)-1H-pyrazole-1-carboxamide]
- IC50 [1]: < 0.01 µM
- IC50 [2]: < 0.01 µM

Compound: CN1C(=O)[C@@H](NC(=O)n2cc(Cc3cccc(F)c3)cn2)COc2ccc(C(=O)N3CCC(C)(C)CC3)cc21 [Example 2, (S)—N-(7-(4,4-dimethylpiperidine-1-carbonyl)-5-methyl-4-oxo-2,3,4,5-tetrahydrobenzo[b][1,4]oxazepin-3-yl)-4-(3-fluorobenzyl)-1H-pyrazole-1-carboxamide]
- IC50 [1]: < 0.01 µM
- IC50 [2]: < 0.01 µM

Compound: CN1C(=O)[C@@H](NC(=O)n2cc(Cc3cccc(F)c3)cn2)COc2ccc(OCC(=O)N3CCC(C(C)(C)O)C3)cc21 (stereo partly drawn) [Example 48, 4-(3-fluorobenzyl)-N-((3S)-7-(2-(3-(2-hydroxypropan-2-yl)pyrrolidin-1-yl)-2-oxoethoxy)-5-methyl-4-oxo-2,3,4,5-tetrahydrobenzo[b][1,4]oxazepin-3-yl)-1H-pyrazole-1-carboxamide]
- IC50 [1]: < 0.01 µM
- IC50 [2]: < 0.01 µM

Compound: CN1C(=O)[C@@H](NC(=O)n2cc(Cc3cccc(F)c3)cn2)COc2ccc(OCC(O)c3ccncc3)cc21 (stereo partly drawn) [Example 71, 4-(3-fluorobenzyl)-N-((3S)-7-(2-hydroxy-2-(pyridin-4-yl)ethoxy)-5-methyl-4-oxo-2,3,4,5-tetrahydrobenzo[b][1,4]oxazepin-3-yl)-1H-pyrazole-1-carboxamide]
- IC50 [1]: < 0.01 µM
- IC50 [2]: < 0.01 µM

Compound: CN1C(=O)[C@@H](NC(=O)n2cc(Cc3cccc(F)c3)cn2)COc2ccc(OCC(O)c3ccccn3)cc21 (stereo partly drawn) [Example 69, 4-(3-fluorobenzyl)-N-((3S)-7-(2-hydroxy-2-(pyridin-2-yl)ethoxy)-5-methyl-4-oxo-2,3,4,5-tetrahydrobenzo[b][1,4]oxazepin-3-yl)-1H-pyrazole-1-carboxamide]
- IC50 [1]: < 0.01 µM
- IC50 [2]: < 0.01 µM

Compound: CN1C(=O)[C@@H](NC(=O)n2cc(Cc3cccc(F)c3)cn2)COc2ccc(OCC(O)c3cccnc3)cc21 (stereo partly drawn) [Example 70, 4-(3-fluorobenzyl)-N-((3S)-7-(2-hydroxy-2-(pyridin-3-yl)ethoxy)-5-methyl-4-oxo-2,3,4,5-tetrahydrobenzo[b][1,4]oxazepin-3-yl)-1H-pyrazole-1-carboxamide]
- IC50 [1]: < 0.01 µM
- IC50 [2]: < 0.01 µM

Compound: CN1C(=O)[C@@H](NC(=O)n2cc(Cc3cccc(F)c3)cn2)COc2ccc(OCC#Cc3cccnc3)cc21 [Example 25, (S)-4-(3-fluorobenzyl)-N-(5-methyl-4-oxo-7-((3-(pyridin-3-yl)prop-2-yn-1-yl)oxy)-2,3,4,5-tetrahydrobenzo[b][1,4]oxazepin-3-yl)-1H-pyrazole-1-carboxamide]
- IC50 [1]: < 0.01 µM
- IC50 [2]: < 0.01 µM

Compound: CN1C(=O)[C@@H](NC(=O)n2cc(Cc3cccc(F)c3)cn2)COc2ccc(OCC#CC3(O)CCCCC3)cc21 [Example 23, (S)-4-(3-fluorobenzyl)-N-(7-((3-(1-hydroxycyclohexyl)prop-2-yn-1-yl)oxy)-5-methyl-4-oxo-2,3,4,5-tetrahydrobenzo[b][1,4]oxazepin-3-yl)-1H-pyrazole-1-carboxamide]
- IC50 [1]: < 0.01 µM
- IC50 [2]: < 0.01 µM

Compound: CN1C(=O)[C@@H](NC(=O)n2cc(Cc3cccc(F)c3)cn2)COc2ccc(OCCCC3(O)CCCCC3)cc21 [Example 27, (S)-4-(3-fluorobenzyl)-N-(7-(3-(1-hydroxycyclohexyl)propoxy)-5-methyl-4-oxo-2,3,4,5-tetrahydrobenzo[b][1,4]oxazepin-3-yl)-1H-pyrazole-1-carboxamide]
- IC50 [1]: < 0.01 µM
- IC50 [2]: < 0.01 µM

Compound: CN1C(=O)[C@@H](NC(=O)n2cc(Cc3cccc(F)c3)cn2)COc2ccc(OCC(C)(C)O)cc21 [Example 20, (S)-4-(3-fluorobenzyl)-N-(7-(2-hydroxy-2-methylpropoxy)-5-methyl-4-oxo-2,3,4,5-tetrahydrobenzo[b][1,4]oxazepin-3-yl)-1H-pyrazole-1-carboxamide]
- IC50 [1]: < 0.01 µM
- IC50 [2]: < 0.01 µM
